{"source": "patent US10478425B2", "about": "“5-phenylazaindole derivative having AMPK-activating activity” (Shionogi & Co., Ltd., priority 2016, dated 2019)", "data": [{"target": "T1, Human AMPK α2β2γ1 (Homo sapiens, UniProt O43741+P54646)", "T1 construct": "The full length cDNAs of human AMPK β2 (NM_005399.3) and human AMPK α2 (NM_006252.3); The full length cDNAs of human AMPK β2 (NM_005399.3); the full length cDNA of human AMPK γ1 (NM_002733.3) had been inserted into pET28b(+); 6×His (N); made in house; host or cells: Escherichia coli BL21 CodonPlus (DE3)-RIL", "T1 sequence (P54646 whole entry)": "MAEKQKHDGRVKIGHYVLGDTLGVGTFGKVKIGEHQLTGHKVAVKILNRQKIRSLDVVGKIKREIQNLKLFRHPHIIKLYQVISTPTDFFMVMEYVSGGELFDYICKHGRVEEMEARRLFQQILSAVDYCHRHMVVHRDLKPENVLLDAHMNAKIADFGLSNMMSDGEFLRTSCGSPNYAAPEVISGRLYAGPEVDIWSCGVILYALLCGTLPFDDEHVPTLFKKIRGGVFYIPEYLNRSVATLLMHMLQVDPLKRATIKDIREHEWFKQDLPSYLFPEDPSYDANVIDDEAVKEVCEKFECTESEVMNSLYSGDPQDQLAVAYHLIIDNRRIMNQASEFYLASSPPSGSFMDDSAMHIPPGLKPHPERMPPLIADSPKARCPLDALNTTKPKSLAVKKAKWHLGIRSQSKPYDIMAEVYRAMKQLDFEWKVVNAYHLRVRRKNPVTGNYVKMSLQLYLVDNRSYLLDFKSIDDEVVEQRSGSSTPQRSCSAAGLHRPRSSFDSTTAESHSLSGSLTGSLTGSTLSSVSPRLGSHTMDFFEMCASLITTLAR", "T1 sequence (O43741 whole entry)": "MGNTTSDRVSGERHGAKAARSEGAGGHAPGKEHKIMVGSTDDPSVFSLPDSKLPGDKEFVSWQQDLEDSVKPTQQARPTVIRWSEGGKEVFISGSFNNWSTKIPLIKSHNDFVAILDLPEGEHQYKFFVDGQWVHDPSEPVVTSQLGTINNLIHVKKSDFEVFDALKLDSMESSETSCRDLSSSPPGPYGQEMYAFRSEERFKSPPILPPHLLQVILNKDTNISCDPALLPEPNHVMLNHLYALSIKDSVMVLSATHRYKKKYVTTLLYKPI", "T1 sequence (P54619 whole entry partner)": "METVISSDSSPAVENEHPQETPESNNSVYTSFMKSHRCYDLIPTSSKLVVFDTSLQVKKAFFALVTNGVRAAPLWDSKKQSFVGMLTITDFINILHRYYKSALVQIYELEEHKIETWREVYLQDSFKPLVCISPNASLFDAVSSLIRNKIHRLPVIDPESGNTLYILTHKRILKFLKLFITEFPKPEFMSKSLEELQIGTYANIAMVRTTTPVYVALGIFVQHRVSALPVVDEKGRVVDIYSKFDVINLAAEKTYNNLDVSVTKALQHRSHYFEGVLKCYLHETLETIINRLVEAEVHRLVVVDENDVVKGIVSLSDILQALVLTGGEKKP", "test": "Test Example 2: activation of phosphorylated human AMPK α2β2γ1 (mobility-shift kinase assay, FL-Peptide 7)", "assay_type": "biochemical", "conditions": "compound concentration showing 150% relative to the control (100%); human AMPK α2β2γ1 phosphorylated with CaMKK2", "experimental": "(§1) The full length cDNAs of human AMPK β2 (NM_005399.3) and human AMPK α2 (NM_006252.3) were inserted into the MCS1 and MCS2 of the pETDuet-1 vector to prepare a human AMPK β2 and human AMPK α2 (6×His tag at the 5′ terminus) expressing plasmid. The plasmid was cotransfected with an expression plasmid, in which the full length cDNA of human AMPK γ1 (NM_002733.3) had been inserted into pET28b(+), into BL21 CodonPlus (DE3)-RIL to obtain an expression strain. The expression strain was cultured in TB medium, followed by induction with 0.5 mM IPTG, and cultured at 25° C. for 3 hours and then harvested. After ultrasonication, supernatant was collected and applied to Histrap FF column (GE) and RESOUECE Q column (GE) to prepare 12.5 mg of purified sample containing three types of subunit from 1.8 L of broth.\n(§2) An expression vector, in which the full length cDNA of human CAMKK β (NM_172226.1) had been inserted into pGEX-6P-3, was transfected into BL21 Star (DE3). The expression strain was cultured in TB medium, followed by induction with 0.5 mM IPTG, and cultured at 25° C. for 3 hours and then harvested. After ultrasonication, supernatant was collected and applied to GSTrap FF column (GE) to prepare 14 mg of GST-fused CAMKK β from 720 ml of broth.\n(§3) Thus, phosphorylation treatment was carried out as pretreatment.\n(§4) Human AMPK α2β2γ1 in an amount to give a conversion rate of approximately 10% by reaction for 2 hours, and CaMKK2 in an amount capable of sufficiently imparting activity to AMPK for one hour were mixed in a buffer solution consisting of a 50 mM HEPES-NaOH buffer solution (pH 7.0), 100 mM NaCl, 5 mM magnesium chloride, 0.1% bovine serum albumin, 0.2 mM sodium orthovanadate(V), 1 mM ethylene glycol-bis(2-aminoethyl ether)-N,N,N′,N′-tetraacetic acid (EGTA), 5 mM disodium β-glycerophosphate, 1 mM dithiothreitol and 0.2 mM ATP, and the resulting liquid was left to stand at 25° C. for 1 to 1.5 hours to sufficiently phosphorylate AMPK.\n(§5) After that, to the enzyme liquid, which had been subjected to phosphorylation treatment, a compound dissolved in DMSO was added so as to have a 1% DMSO concentration. The resulting liquid was left to stand for 10 minutes.\n(§6) To the liquid, a substrate solution consisting of a 50 mM HEPES-NaOH buffer solution (pH 7.0), 100 mM NaCl, 10 mM magnesium chloride, 0.1% bovine serum albumin, 0.2 mM sodium orthovanadate(V), 1 mM ethylene glycol-bis(2-aminoethyl ether)-N,N,N′,N′-tetraacetic acid (EGTA), 5 mM disodium β-glycerophosphate, 2 mM dithiothreitol, 0.4 mM ATP and 3 μM FL-Peptide 7 (manufactured by Caliper Life Sciences, Inc.) was added in equal amount (10 μl in total). The resulting liquid was allowed to react at 25° C. for 2 hours, then 10 μl of 20 mM EDTA was added thereto to stop the reaction.\n(§7) To detect phosphorylated fluorescent substrates, the reaction mixture was applied to a measuring device, LabChip EZ Reader II manufactured by Caliper Life Science, Inc., for detecting fluorescence by using differences in mobility due to differences in charge. The setting conditions for the device were pressure, −1.5 PSI; upstream voltage, −2250 V; downstream voltage, −400 V; post sample buffer sip time, 40 seconds; final delay, 120 seconds; and peak order, Product First.\n(§8) A conversion rate was calculated from the peak heights of the obtained substrate and product. The conversion rate when not containing a compound was used as a control, and a concentration dependent curve was made by plotting the rate of increase in activity to the control at each concentration of a compound.", "units": {"EC150": "nM"}, "values": [{"compound": "COC(=O)N1CCN(c2ccc(-c3nc4cc(O[C@@H]5CO[C@H]6[C@@H]5OC[C@H]6O)[nH]c4cc3F)cc2)CC1", "note": "[Compound I-1-57]", "EC150": 32}, {"compound": "CNCCOc1ccc(-c2ccc(-c3nc4cc(O[C@@H]5CO[C@H]6[C@@H]5OC[C@H]6O)[nH]c4cc3F)cc2)cc1", "note": "[Compound I-1-69]", "EC150": 1.6}, {"compound": "CNC(=O)OC1CCN(c2ccc(-c3nc4cc(O[C@@H]5CO[C@H]6[C@@H]5OC[C@H]6O)[nH]c4cc3F)cc2)CC1", "note": "[Compound I-1-49]", "EC150": 19}, {"compound": "O=C1NCCN1c1ccc(-c2ccc(-c3nc4cc(O[C@@H]5CO[C@H]6[C@@H]5OC[C@H]6O)[nH]c4cc3F)cc2)cc1", "note": "[Compound I-1-58]", "EC150": 1.3}, {"compound": "NC(=O)c1ccc(-c2ccc(-c3nc4cc(O[C@@H]5CO[C@H]6[C@@H]5OC[C@H]6O)[nH]c4cc3F)cc2)cc1F", "note": "[Compound I-1-52]", "EC150": 2.2}, {"compound": "O[C@@H]1CO[C@H]2[C@@H]1OC[C@H]2Oc1cc2nc(-c3ccc(C4=CCN(C5=NCCO5)CC4)cc3)c(F)cc2[nH]1", "note": "[Compound I-1-51]", "EC150": 12}, {"compound": "O[C@@H]1CO[C@H]2[C@@H]1OC[C@H]2Oc1cc2nc(-c3ccc(-c4ccc(NC5=NCCO5)cc4)cc3)c(F)cc2[nH]1", "note": "[Compound I-1-61]", "EC150": 2.3}, {"compound": "COC(=O)N1CC=C(c2ccc(-c3nc4cc(O[C@@H]5CO[C@H]6[C@@H]5OC[C@H]6O)[nH]c4cc3F)cc2)CC1", "note": "[Compound I-1-43]", "EC150": 7}, {"compound": "CO[C@@H]1CO[C@H]2[C@@H]1OC[C@H]2Oc1cc2nc(-c3ccc(-c4ccc(N=S(C)(C)=O)cc4)cc3)c(F)cc2[nH]1", "note": "[Compound I-1-07]", "EC150": 15}, {"compound": "CCOC(=O)NC1CCN(c2ccc(-c3nc4cc(O[C@@H]5CO[C@H]6[C@@H]5OC[C@H]6O)[nH]c4cc3F)cc2)CC1", "note": "[Compound I-1-10]", "EC150": 13}, {"compound": "CCP(=O)(CC)c1ccc(-c2ccc(-c3nc4cc(O[C@@H]5CO[C@H](CO)C5)[nH]c4cc3F)cc2)cc1", "note": "[Compound I-2-78]", "EC150": 1.5}, {"compound": "CS(=O)(=O)c1ccc(-c2ccc(-c3nc4cc(O[C@@H]5CO[C@H](CO)C5)[nH]c4cc3F)cc2)cc1", "note": "[Compound I-2-79]", "EC150": 0.69}, {"compound": "CC(C)OC(=O)NC1CCN(c2ccc(-c3nc4cc(O[C@@H]5CO[C@H]6[C@@H]5OC[C@H]6O)[nH]c4cc3F)cc2)CC1", "note": "[Compound I-1-34]", "EC150": 8.6}, {"compound": "CC(C)(O)/C=C/c1ccc(-c2nc3cc(O[C@@H]4CO[C@H]5[C@@H]4OC[C@H]5O)[nH]c3cc2F)cc1", "note": "[Compound I-2-14]", "EC150": 9.9}, {"compound": "O[C@@H]1CO[C@H]2[C@@H]1OC[C@H]2Oc1cc2nc(-c3ccc(-c4ccc(OC5COC5)cc4)cc3)c(F)cc2[nH]1", "note": "[Compound I-1-28]", "EC150": 15}, {"compound": "CNC(=O)COc1ccc(-c2ccc(-c3nc4cc(O[C@@H]5CO[C@H]6[C@@H]5OC[C@H]6O)[nH]c4cc3F)cc2)cc1", "note": "[Compound I-2-47]", "EC150": 2.2}, {"compound": "COC(=O)NC1CCN(c2ccc(-c3nc4cc(O[C@@H]5CO[C@H](CO)C5)[nH]c4cc3F)cc2)CC1", "note": "[Compound I-1-03]", "EC150": 9.8}]}, {"target": "T1, Human AMPK α2β2γ1", "test": "Test Example 2: activation of phosphorylated human AMPK α2β2γ1 (mobility-shift kinase assay, FL-Peptide 7)", "assay_type": "biochemical", "conditions": "maximum rate of increase in activity within the measurement range, control = 100%; read-out: Emax", "experimental": "as §1, §2, §3, §4, §5, §6, §7, §8", "units": {"Emax": "%"}, "values": [{"compound": "COC(=O)N1CCN(c2ccc(-c3nc4cc(O[C@@H]5CO[C@H]6[C@@H]5OC[C@H]6O)[nH]c4cc3F)cc2)CC1", "note": "[Compound I-1-57]", "Emax": 550}, {"compound": "CNCCOc1ccc(-c2ccc(-c3nc4cc(O[C@@H]5CO[C@H]6[C@@H]5OC[C@H]6O)[nH]c4cc3F)cc2)cc1", "note": "[Compound I-1-69]", "Emax": 359}, {"compound": "CNC(=O)OC1CCN(c2ccc(-c3nc4cc(O[C@@H]5CO[C@H]6[C@@H]5OC[C@H]6O)[nH]c4cc3F)cc2)CC1", "note": "[Compound I-1-49]", "Emax": 551}, {"compound": "O=C1NCCN1c1ccc(-c2ccc(-c3nc4cc(O[C@@H]5CO[C@H]6[C@@H]5OC[C@H]6O)[nH]c4cc3F)cc2)cc1", "note": "[Compound I-1-58]", "Emax": 494}, {"compound": "NC(=O)c1ccc(-c2ccc(-c3nc4cc(O[C@@H]5CO[C@H]6[C@@H]5OC[C@H]6O)[nH]c4cc3F)cc2)cc1F", "note": "[Compound I-1-52]", "Emax": 469}, {"compound": "O[C@@H]1CO[C@H]2[C@@H]1OC[C@H]2Oc1cc2nc(-c3ccc(C4=CCN(C5=NCCO5)CC4)cc3)c(F)cc2[nH]1", "note": "[Compound I-1-51]", "Emax": 486}, {"compound": "O[C@@H]1CO[C@H]2[C@@H]1OC[C@H]2Oc1cc2nc(-c3ccc(-c4ccc(NC5=NCCO5)cc4)cc3)c(F)cc2[nH]1", "note": "[Compound I-1-61]", "Emax": 383}, {"compound": "COC(=O)N1CC=C(c2ccc(-c3nc4cc(O[C@@H]5CO[C@H]6[C@@H]5OC[C@H]6O)[nH]c4cc3F)cc2)CC1", "note": "[Compound I-1-43]", "Emax": 514}, {"compound": "CO[C@@H]1CO[C@H]2[C@@H]1OC[C@H]2Oc1cc2nc(-c3ccc(-c4ccc(N=S(C)(C)=O)cc4)cc3)c(F)cc2[nH]1", "note": "[Compound I-1-07]", "Emax": 189}, {"compound": "CCOC(=O)NC1CCN(c2ccc(-c3nc4cc(O[C@@H]5CO[C@H]6[C@@H]5OC[C@H]6O)[nH]c4cc3F)cc2)CC1", "note": "[Compound I-1-10]", "Emax": 490}, {"compound": "CCP(=O)(CC)c1ccc(-c2ccc(-c3nc4cc(O[C@@H]5CO[C@H](CO)C5)[nH]c4cc3F)cc2)cc1", "note": "[Compound I-2-78]", "Emax": 573}, {"compound": "CS(=O)(=O)c1ccc(-c2ccc(-c3nc4cc(O[C@@H]5CO[C@H](CO)C5)[nH]c4cc3F)cc2)cc1", "note": "[Compound I-2-79]", "Emax": 591}, {"compound": "CC(C)OC(=O)NC1CCN(c2ccc(-c3nc4cc(O[C@@H]5CO[C@H]6[C@@H]5OC[C@H]6O)[nH]c4cc3F)cc2)CC1", "note": "[Compound I-1-34]", "Emax": 518}, {"compound": "CC(C)(O)/C=C/c1ccc(-c2nc3cc(O[C@@H]4CO[C@H]5[C@@H]4OC[C@H]5O)[nH]c3cc2F)cc1", "note": "[Compound I-2-14]", "Emax": 507}, {"compound": "O[C@@H]1CO[C@H]2[C@@H]1OC[C@H]2Oc1cc2nc(-c3ccc(-c4ccc(OC5COC5)cc4)cc3)c(F)cc2[nH]1", "note": "[Compound I-1-28]", "Emax": 596}, {"compound": "CNC(=O)COc1ccc(-c2ccc(-c3nc4cc(O[C@@H]5CO[C@H]6[C@@H]5OC[C@H]6O)[nH]c4cc3F)cc2)cc1", "note": "[Compound I-2-47]", "Emax": 635}, {"compound": "COC(=O)NC1CCN(c2ccc(-c3nc4cc(O[C@@H]5CO[C@H](CO)C5)[nH]c4cc3F)cc2)CC1", "note": "[Compound I-1-03]", "Emax": 556}]}]}
